Experimental data reported in PMC5111108, “An insecticide resistance-breaking mosquitocide targeting inward rectifier potassium channels in vectors of Zika virus and malaria” (Scientific Reports, 2016).

How the values were obtained:
An. gambiae Akron strain = assay: Topical toxicity bioassay, An. gambiae Akron strain adult females; format: in vivo; conditions: 24 h, adult female An. gambiae, (95% confidence limits), synergist PBO applied 4 h prior where labelled
Procedure: (§1) Topical toxicity bioassays were performed based on the method of Pridgeon et al.[50]. Briefly, non-blood fed adult female mosquitoes were chilled on ice for 1–3 minutes, during which 200 nL of chemical (dissolved in 95% ethanol) was applied onto the abdomen of the insect using a handheld Hamilton® micro-applicator. For synergism studies, 500 ng of the synergist (i.e., piperonyl butoxide [PBO] or S,S,S-tributyl phosphorotrithioate [DEF]) per milligram of mosquito (ng/mg) was applied to the abdomen 4 h prior to application of the insecticide. […] The three ED50 values obtained were then averaged and presented as a mean. An ethanol-only treatment was included in each experiment as a negative control. Treated mosquitoes were transferred to small cages with access to 10% sucrose and held under rearing conditions for 24 h. Mortality was recorded at 24 h.

honey bee, A. mellifera = assay: Acute topical toxicity to adult honey bees; format: in vivo, Apis mellifera; conditions: 1 mg per bee topical, 48 h
Procedure: Frames of late-stage honey bee (A. mellifera) pupae were taken from four colonies at The Ohio State University Honey Bee Lab in Wooster, OH and maintained in a dark humid incubator at 34 °C (Darwin Chambers Co., St. Louis, MO, model H024) until adult bees emerged. New adults were brushed from frames daily and placed in wooden screen cages (21 × 14 × 12 cm) provisioned with 1:1 (w/w) sucrose in water.
Acute toxicity experiments in adult bees were performed as follows. Twenty-four hours after emergence, adult honey bees in cages were anaesthetized with carbon dioxide, divided into groups of approximately 20 bees and placed in plastic-coated paper cups (177 cm^3; UNIQ Paper Yogurt Cup, Frozen Dessert Supplies, Gilbert, AZ) covered with cotton cheesecloth. […] As a positive control, some bees were treated with 3 μl of bifenthrin (0.1 μg/μl); negative controls consisted of bees treated with 3 μl of solvent. Applications were made using a 20 μl micropipette (Fisherbrand Finnpipette F2, Fisher Scientific, Pittsburgh, PA) with disposable plastic tips. After treatment, bees were returned to the paper cups and provided with sugar syrup in punctured 1.5 ml microcentrifuge tubes. […] Bees showing no movement on inspection at 48 h after treatment were scored as dead.

An. gambiae = assay: Blood meal processing (abdominal diameter) in An. gambiae; format: in vivo, Anopheles gambiae; conditions: topical 1 μg/mg (ED30 dose of VU041) immediately after engorgement, over 24 h
Procedure: Blood meal processing studies were performed with similar methods as described above, with the exception that An. gambiae were blood fed on anesthetized mice. All methods were carried out in accordance with Vanderbilt Institutional Animal Care and Use Committee approval (protocol M/13/164 to Dr. Julian Hillyer, Department of Biology, Vanderbilt University). Upon completion of blood feeding, female mosquitoes with a fully distended abdomen were selected and 200 nL of chemical at a non-lethal concentration (1 μg/mg) was applied directly to the abdomen. Any mosquito that died during the 24 h observation period was excluded from the analysis. Images of the abdomens were acquired at 0, 2, 5, 8, and 24 h through the dorsal cuticle and were measured at the widest point of the abdomen. These images were captured using bright-field illumination on a Nikon 90i light microscope (Nikon Corp., Tokyo, Japan) connected to a Photometrics CoolSNAP HQ2 high-sensitivity monochrome CCD camera (Roper Scientific, Ottobrunn, Germany). Digital images were acquired using Nikon Advanced Research NIS-Elements software. Mean abdominal diameters were compared using a one-way ANOVA with a Tukey’s post-hoc analysis (Prism 6, Graphpad Software, La Jolla, CA).

AeKir1 = target: T1, AeKir1 (Aedes aegypti, UniProt L0EQS9); assay: Tl+ flux assay, AeKir1; format: cell-based
T1 sequence (L0EQS9 1-486): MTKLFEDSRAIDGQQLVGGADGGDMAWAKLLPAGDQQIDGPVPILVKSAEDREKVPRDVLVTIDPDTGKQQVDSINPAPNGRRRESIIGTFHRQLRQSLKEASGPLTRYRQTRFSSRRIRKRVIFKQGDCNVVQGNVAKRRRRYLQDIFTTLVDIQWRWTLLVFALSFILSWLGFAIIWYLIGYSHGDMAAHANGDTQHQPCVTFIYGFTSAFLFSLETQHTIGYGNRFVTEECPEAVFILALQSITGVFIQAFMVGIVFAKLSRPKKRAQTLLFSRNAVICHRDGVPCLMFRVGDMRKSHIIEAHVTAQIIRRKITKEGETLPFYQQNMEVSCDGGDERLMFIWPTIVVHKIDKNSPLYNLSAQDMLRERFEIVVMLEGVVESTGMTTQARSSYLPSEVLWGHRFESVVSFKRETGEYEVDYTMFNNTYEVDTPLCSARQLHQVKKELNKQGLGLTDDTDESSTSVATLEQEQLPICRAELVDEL

Ae. aegypti [1] = assay: Topical toxicity bioassay, Ae. aegypti (LVP and PR strains) adult females; format: in vivo, Aedes aegypti; conditions: LVP strain
Procedure: Topical toxicity bioassays in adult female Ae. aegypti (LVP and PR strains) were performed as described previously. […] A solvent-only treatment was included in each experiment as a negative control. Treated mosquitoes were transferred to small cages with access to 10% sucrose and held under rearing conditions for 24 h. The efficacy of a dose was measured as the percentage of treated mosquitoes in a cage that were flightless or dead at 24 h. Four to eight replicates of 10 mosquitoes were performed per dose. The ED50 values were determined using a non-linear curve fit analysis (log [inhibitor] vs. response variable-slope) in Prism 6 (Graphpad Software).
Six replicate experiments of 10 mosquitoes were performed.

An. gambiae G3 strain = assay: Topical toxicity bioassay, An. gambiae G3 strain adult females; format: in vivo, Anopheles gambiae; conditions: adult female An. gambiae; for ED50, G3 Strain: 24 h, (95% confidence limits), synergists PBO/DEF applied 4 h prior where labelled
Procedure: as §1

Ae. aegypti [2] = assay: In vivo diuresis assay in adult female Ae. aegypti (LVP); design: species or system Aedes aegypti; conditions: topical 1.7 μg/mg mosquito 2 h before injection of 900 nL K+-PBS, 1 h
Procedure: The excretory capacity of adult female Ae. aegypti (LVP strain) was measured as described previously. […] The K^+-PBS consisted of the following (in mM): 92.2 NaCl, 47.5 KCl, 10 Na2HPO4 and 2 KH2PO4 (pH 7.5). Each treatment group of 5 mosquitoes was transferred into a separate graduated, packed-cell volume tube (MidSci, St. Louis, MO) and held for 1 h at 28 °C. The volume excreted by the mosquitoes was measured visually via the graduated column at the bottom of the tube. At least 8 replicates (5 mosquitoes per replicate) were performed for each treatment. All mosquitoes were confirmed to be alive at the end of 1 h.

SMILES	ED50, Akron Strain (An. gambiae Akron strain)	honey bees alive (honey bee, A. mellifera)	change of abdominal diameter after blood meal (An. gambiae)	IC50 (AeKir1)	ED50 (Ae. aegypti [1]; topical, 24 h, flightless or dead)	ED50, G3 Strain (An. gambiae G3 strain)	ED30 (An. gambiae G3 strain)	diuretic capacity (urine excreted) compared to controls, reduction (Ae. aegypti [2])	topical toxicity (Ae. aegypti [1]; dose near ED50 of VU041, 24 h)
O=C(Cn1nc(C(F)(F)F)c2c1CCCC2)N1CCCc2ccccc21 [VU041, 1-(3,4-dihydroquinolin-1(2H)-yl)-2-(3-(trifluoromethyl)-4,5,6,7-tetrahydro-1H-indazol-1-yl)ethan-1-one]	2.8 (2.1–4.1) A μg/mg	91.3%	did not change over the following 24 h period	1.7 µM	3.24 μg/mg mosquito	1.8 (0.9–3.1) A μg/mg	1 μg/mg of mosquito	~ 51%	–
O=C(Cn1ncc2c1CCOC2)N1CCCc2ccccc21 [VU730]	–	–	–	–	–	2.4 (2.1–2.9) A μg/mg	–	–	–
O=C(Cn1nc(C(F)(F)F)c2c1CCCC2)NC1CCC1 [VU937]	>10 µg/mg	–	decreased significantly over 24 h	–	–	>10 µg/mg	–	–	not toxic
